Data taken from ChEMBL document CHEMBL1201862, “PubChem BioAssay data set” (2004).
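Compound exposure: 48 hours, 5 concentrations, 96-well plates. GI50 marks 50% less growth.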 The source made the active and inactive calls. Cut-off read from the data, not from the text of the source: active = GI50 up to about 1.1 µM and inactive = higher.

Assays:
Experiment in all cases: NCI anticancer screen, dose series, 48 h
SNB-19 = test system: SNB-19
KM12 = test system: KM12
SN12C = test system: SN12C
HCT-15 = test system: HCT-15
UO-31 = test system: UO-31
BT-549 = test system: BT-549
CAKI-1 = test system: CAKI-1
Malme-3M = test system: Malme-3M
IGROV-1 = test system: IGROV-1
MCF7 = test system: MCF7
U-251 = test system: U-251
SF-539 = test system: SF-539
PC-3 = test system: PC-3
UACC-257 = test system: UACC-257
NCI-H23 = test system: NCI-H23
HL-60 = test system: HL-60
LOX IMVI = test system: LOX IMVI
MOLT-4 = test system: MOLT-4
NCI/ADR-RES = test system: NCI/ADR-RES
HCC 2998 = test system: HCC 2998

Structure (SMILES)	GI50 (SNB-19)	GI50 (KM12)	GI50 (SN12C)	GI50 (HCT-15)	GI50 (UO-31)	GI50 (BT-549)	GI50 (CAKI-1)	GI50 (Malme-3M)	GI50 (IGROV-1)	GI50 (MCF7)	GI50 (U-251)	GI50 (SF-539)	GI50 (PC-3)	GI50 (UACC-257)	GI50 (NCI-H23)	GI50 (HL-60)	GI50 (LOX IMVI)	GI50 (MOLT-4)	GI50 (NCI/ADR-RES)	GI50 (HCC 2998)
NC1(C(=O)O)CCCC1C(=O)O (stereo not given)	> 100 µM (inactive)	> 100 µM (inactive)	> 100 µM (inactive)	> 100 µM	> 100 µM (inactive)	> 100 µM (inactive)	> 100 µM (inactive)	> 100 µM (inactive)	> 100 µM (inactive)	> 100 µM (inactive)	> 100 µM (inactive)	> 100 µM (inactive)	> 100 µM (inactive)	> 100 µM (inactive)	> 100 µM (inactive)	> 100 µM (inactive)	> 100 µM (inactive)	> 100 µM (inactive)	> 100 µM (inactive)	–
c1cc(-c2ccc(-c3ccc(-c4ccc(-c5ccncc5)o4)cc3)o2)ccn1	18.5 µM (inactive)	15.3 µM (inactive)	22.4 µM (inactive)	15.1 µM	21.5 µM (inactive)	15.7 µM (inactive)	21.4 µM (inactive)	19.8 µM (inactive)	19.1 µM (inactive)	18.8 µM (inactive)	17.5 µM (inactive)	–	18.7 µM (inactive)	15.8 µM (inactive)	16.9 µM (inactive)	18.5 µM (inactive)	21.4 µM (inactive)	6.34 µM (inactive)	31.2 µM (inactive)	18.2 µM (inactive)
CC1(C)C2CCC1(C)[C@H](n1c(=O)n([C@@H]3CC4CCC3(C)C4(C)C)c(=O)n([C@@H]3CC4CCC3(C)C4(C)C)c1=O)C2	–	58.1 µM (inactive)	–	49.2 µM	38.7 µM (inactive)	67.1 µM (inactive)	66.7 µM (inactive)	–	65.6 µM (inactive)	71.9 µM (inactive)	25.3 µM (inactive)	17.8 µM (inactive)	67.9 µM (inactive)	55.8 µM (inactive)	63 µM (inactive)	23.9 µM (inactive)	> 100 µM (inactive)	63.4 µM (inactive)	> 100 µM (inactive)	22 µM (inactive)
COc1cc2c(cc1OC)C1=Cc3ccc(OC)c(OC)c3C(C#N)N1CC2 (stereo not given)	41.3 µM (inactive)	21.1 µM (inactive)	35.2 µM (inactive)	> 100 µM	> 100 µM (inactive)	14.6 µM (inactive)	> 100 µM (inactive)	22.4 µM (inactive)	–	29.7 µM (inactive)	21.6 µM (inactive)	13.8 µM (inactive)	32.4 µM (inactive)	17.7 µM (inactive)	29.8 µM (inactive)	39 µM (inactive)	–	33.1 µM (inactive)	> 100 µM (inactive)	18.5 µM (inactive)
CN(CCc1ccc(Cl)c(Cl)c1)[C@H]1CCCC[C@H]1N1CCCC1	> 100 µM (inactive)	> 100 µM (inactive)	> 100 µM (inactive)	> 100 µM	> 100 µM (inactive)	> 100 µM (inactive)	> 100 µM (inactive)	> 100 µM (inactive)	> 100 µM (inactive)	> 100 µM (inactive)	> 100 µM (inactive)	–	> 100 µM (inactive)	> 100 µM (inactive)	> 100 µM (inactive)	> 100 µM (inactive)	> 100 µM (inactive)	> 100 µM (inactive)	> 100 µM (inactive)	> 100 µM (inactive)
COc1ccc(C)cc1NC(=S)C#N	28.9 µM (inactive)	36.2 µM (inactive)	> 100 µM (inactive)	27.5 µM	–	35.2 µM (inactive)	> 100 µM (inactive)	–	–	32.2 µM (inactive)	> 100 µM (inactive)	33.1 µM (inactive)	26.4 µM (inactive)	35.3 µM (inactive)	33.3 µM (inactive)	> 100 µM (inactive)	> 100 µM (inactive)	–	27.4 µM (inactive)	44.6 µM (inactive)
CCO/C=N/NC(=O)CSc1nc2ccc(I)cc2c(=O)n1Cc1ccccc1	44.2 µM (inactive)	46.9 µM (inactive)	84.5 µM (inactive)	> 100 µM	> 100 µM (inactive)	> 100 µM (inactive)	> 100 µM (inactive)	–	39 µM (inactive)	33.6 µM (inactive)	35.9 µM (inactive)	53.8 µM (inactive)	43.9 µM (inactive)	> 100 µM (inactive)	36.9 µM (inactive)	> 100 µM (inactive)	63.8 µM (inactive)	28.5 µM (inactive)	> 100 µM (inactive)	43.5 µM (inactive)
CN1CC2CN(Cc3ccccc3)CCN2c2cccnc21 (stereo not given)	64.7 µM (inactive)	23.9 µM (inactive)	–	28.6 µM	69.3 µM (inactive)	33.3 µM (inactive)	93.1 µM (inactive)	47 µM (inactive)	52.7 µM (inactive)	39.9 µM (inactive)	42.8 µM (inactive)	62.8 µM (inactive)	45.9 µM (inactive)	40.8 µM (inactive)	39 µM (inactive)	29 µM (inactive)	20.9 µM (inactive)	35.6 µM (inactive)	32.1 µM (inactive)	–
C[N+]1(C)CCOC(O)(c2ccccc2)C1 (stereo not given)	> 100 µM (inactive)	> 100 µM (inactive)	> 100 µM (inactive)	> 100 µM	> 100 µM (inactive)	> 100 µM (inactive)	> 100 µM (inactive)	> 100 µM (inactive)	> 100 µM (inactive)	> 100 µM (inactive)	> 100 µM (inactive)	> 100 µM (inactive)	> 100 µM (inactive)	> 100 µM (inactive)	> 100 µM (inactive)	> 100 µM (inactive)	> 100 µM (inactive)	> 100 µM (inactive)	> 100 µM (inactive)	–
COc1cc([C@H]2c3cc(O)c(OC)cc3C[C@]3(O)[C@@H]2CO[C@@H]3O)ccc1O	> 100 µM (inactive)	> 100 µM (inactive)	> 100 µM (inactive)	> 100 µM	> 100 µM (inactive)	> 100 µM (inactive)	> 100 µM (inactive)	–	> 100 µM (inactive)	> 100 µM (inactive)	> 100 µM (inactive)	> 100 µM (inactive)	> 100 µM (inactive)	> 100 µM (inactive)	> 100 µM (inactive)	> 100 µM (inactive)	> 100 µM (inactive)	> 100 µM (inactive)	> 100 µM (inactive)	> 100 µM (inactive)
Oc1cc(-c2cccc(C(F)(F)F)c2)nc2cc3c(cc12)OCO3	2.77 µM (inactive)	2.12 µM (inactive)	8.75 µM (inactive)	1.38 µM	8.89 µM (inactive)	1.24 µM (inactive)	10.9 µM (inactive)	0.518 µM (active)	3.29 µM (inactive)	2.23 µM (inactive)	2.55 µM (inactive)	1.04 µM (active)	0.365 µM (active)	–	1.77 µM (inactive)	0.246 µM (active)	–	2.82 µM (inactive)	1.04 µM (active)	3.44 µM (inactive)
Nc1nc(CCl)nc(N2CCOCC2)n1	> 100 µM (inactive)	32.1 µM (inactive)	36.1 µM (inactive)	16 µM	17.3 µM (inactive)	31.7 µM (inactive)	16.5 µM (inactive)	–	14.3 µM (inactive)	28.6 µM (inactive)	22.4 µM (inactive)	22.8 µM (inactive)	72.1 µM (inactive)	63.2 µM (inactive)	17.8 µM (inactive)	13.9 µM (inactive)	–	26.9 µM (inactive)	29.4 µM (inactive)	17.7 µM (inactive)
CCOC(=O)/C=C(/OCC)[C@@H]1C(C(=O)c2ccc(Cl)cc2)[C@H]1/C(=C\C(=O)OCC)OCC (stereo not given in full)	> 100 µM (inactive)	56.9 µM (inactive)	> 100 µM (inactive)	> 100 µM	8.79 µM (inactive)	> 100 µM (inactive)	> 100 µM (inactive)	> 100 µM (inactive)	> 100 µM (inactive)	> 100 µM (inactive)	> 100 µM (inactive)	> 100 µM (inactive)	> 30.5 µM (inactive)	> 100 µM (inactive)	> 76.9 µM (inactive)	5.87 µM (inactive)	> 100 µM (inactive)	> 20.5 µM (inactive)	29 µM (inactive)	–
CCOc1ccc(N2C(=O)NC3(c4ccccc4)N(C)C(=O)N(C)C23c2ccccc2)cc1 (stereo not given)	> 100 µM (inactive)	55.3 µM (inactive)	> 100 µM (inactive)	–	92.9 µM (inactive)	83.9 µM (inactive)	> 100 µM (inactive)	> 100 µM (inactive)	> 100 µM (inactive)	46.2 µM (inactive)	> 100 µM (inactive)	> 100 µM (inactive)	41 µM (inactive)	> 100 µM (inactive)	> 100 µM (inactive)	75.2 µM (inactive)	> 100 µM (inactive)	30.4 µM (inactive)	63.1 µM (inactive)	–
Cc1cccc2c1Oc1ncccc1C2NC(=O)CN(C)C (stereo not given)	> 10 µM (inactive)	> 10 µM (inactive)	> 10 µM (inactive)	> 10 µM	> 10 µM (inactive)	> 10 µM (inactive)	–	> 10 µM (inactive)	> 10 µM (inactive)	> 10 µM (inactive)	> 10 µM (inactive)	> 10 µM (inactive)	> 10 µM (inactive)	> 10 µM (inactive)	> 10 µM (inactive)	> 10 µM (inactive)	> 10 µM (inactive)	> 10 µM (inactive)	> 10 µM (inactive)	> 10 µM (inactive)
